# Source: publication PMC9532399, “The lysosomal transporter TAPL has a dual role as peptide translocator and phosphatidylserine floppase” (Nature Communications, 2022)
# Assays:
# TAPL E664Q mutant = experiment: Dithionite-based flip-flop assay, E664Q proteoliposomes; format: biochemical, mouse; conditions: for NBD*-PS fluorescence intensity (net percentage transported): E664Q
# Method: All lipids used in reconstitution were purchased from Avanti Polar Lipids, Inc. (purity > 99%). The in vitro flip–flop assay was performed using NBD* dye-labeled proteoliposomes as described previously. Briefly, E. coli polar lipids and egg PC were mixed in a 1:1 molar ratio, and 0.5% (mol/mol) NBD*-lipid was added. The lipid mixture was then dried under nitrogen gas. The NBD*-lipids used were 18:1-06:0 NBD*-PS (1-oleoyl-2-{6-[(7-nitro-2-1,3-benzoxadiazol-4-yl)amino]hexanoyl}-sn-glycero-3-phosphoserine), 18:1-06:0 NBD*-PC (1-oleoyl-2-{6-[(7-nitro-2-1,3-benzoxadiazol-4-yl)amino]hexanoyl}-sn-glycero-3-phosphocholine), 18:1-06:0 NBD*-PG (1-oleoyl-2-{6-[(7-nitro-2-1,3-benzoxadiazol-4-yl)amino]hexanoyl}-sn-glycero-3-[phospho-rac-(1-glycerol)]), 18:1-06:0 NBD*-PE (1-oleoyl-2-{6-[(7-nitro-2-1,3-benzoxadiazol-4-yl)amino]hexanoyl}-sn-glycero-3-phosphoethanolamine), and 25-NBD*-Cholesterol (25-[N-[(7-nitro-2-1,3-benzoxadiazol-4-yl)methyl]amino]−27-norcholesterol). Thin lipid films were solubilized in 20 mM HEPES–NaOH pH 8.0, 200 mM NaCl and 5% (v/v) glycerol, incubated at RT for 30 min and subjected to 5 freeze–thaw cycles. After extrusion with a Mini-Extruder at 65 °C, final lipid concentrations were determined by phosphorus assays. Briefly, 10 μL of extruded lipid was added to 10 μL of 2% (w/v) ammonium molybdate and 300 μL of concentrated perchloric acid. The mixture was heated at 250 °C for 30 min, then cooled to RT and mixed with 1.5 mL of 0.4% (w/v) ammonium molybdate and 250 μL of 9% (w/v) L-ascorbic acid. It was again heated at 100 °C for 6 min and cooled to RT. Lipid concentrations were calculated from the absorbance at 820 nm using a standard curve prepared with NaH2PO4 solution. After accurately determining the lipid concentration, DM-purified protein and 5 mM lipid suspension (solubilized in 5 mM DM) were mixed 1:25 (w/w). […]
# To measure the flip–flop activity, 10 μL of 2 mM NBD*-labeled proteoliposomes were added to 100 μL of reaction buffer (20 mM HEPES–NaOH pH 8.0, 200 mM NaCl, 5 mM ATP and 5% (v/v) glycerol) in the presence of 2 mM MgCl2 (or NaCl), and incubated at 37 °C for 1 h. The mixture was transferred to a 96-well plate and time-dependent fluorescence (λex/λem = 460/538 nm) was recorded every 30 s for 26 min using a fluorescence spectrophotometer (Gemini XPS). After the baseline fluorescence had stabilized, 10 mM sodium dithionite was added to quench the fluorescence of NBD*-lipid present in the outer leaflets of the liposomes. The initial rapid drop and subsequent slow decline in fluorescence intensity were monitored. […] The net percentage of NBD*-lipid translocated across the lipid bilayer was calculated from the following equation[72]: the percentage of protected NBD*-lipid in the inner leaflet = [(FD−F0)/(FT−F0)]×100, and that of accessible NBD*-lipid in the outer leaflet = [(FT−FD)/(FT−F0)]×100, where FT is the total fluorescence of the sample before the addition of dithionite, FD is the fluorescence of the sample after quenching with dithionite, and F0 is any residual fluorescence of the sample after solubilization with Triton X-100. Fluorescence values (FT, FD, F0) were calculated as the averages of 5 points on the respective plateau lines. The ΔTMD0-mediated lipid floppase activity was determined by subtracting the percentage of NBD*-lipid fluorescence measured in the presence of Na^+/ATP from that measured in the presence of Mg^2+/ATP.
# TAPL Q298A mutant = experiment: Peptide transport assay, Q298A; format: biochemical, mouse; conditions: 9-mer 10 mM (sic), 3 mM ATP
# Method: Proteoliposomes for peptide transport assays were prepared according to the protocol of Zhao et al., with some modifications. Briefly, E. coli polar lipid extract dissolved in chloroform was dried under a gentle stream of nitrogen. The thin film of lipids was placed under a desiccator overnight to completely remove residual chloroform and then hydrated in 1X PBS buffer pH 7.4 (137 mM NaCl, 2.7 mM KCl, 8 mM Na2HPO4, and 2 mM KH2PO4) with 10 mM MgCl2 and 5% (v/v) glycerol. After water bath sonication at 22 °C for 5 min (Powersonic 610, KLEENTEK), the lipid solution was extruded using a Mini-Extruder equipped with a polycarbonate membrane filter (200 nm pore) (Avanti Polar Lipids, Inc.) to obtain unilamellar vesicles, which were destabilized with 0.36% (w/v) DM. The DM-purified protein and lipid suspension were mixed in a 1:50 (w/w) ratio. After incubation at 4 °C for 2 h, the mixture was treated with Bio-Beads SM-2 resin (60 and 120 mg, see above) at 4 °C for a total of 18 h to remove detergent. The proteoliposomes were collected by centrifugation at 200,000×g for 1.5 h at 4 °C and resuspended in the buffer described above.
# The peptide transport activity of ΔTMD0 was measured as described previously. Briefly, 50 μL of ΔTMD0-loaded proteoliposomes (~0.6 μg protein) were added into 200 μL reaction buffer containing 1X PBS pH 7.4, 3 mM ATP, and 10 mM MgCl2 in the presence or absence of 10 μM 5-IAF-labeled peptides. To investigate transport activity, the mixture was incubated at 37 °C for 10 min. The reaction was terminated by incubating the mixture for 20 min on ice. Proteoliposomes were collected by centrifugation at 200,000×g for 30 min and then washed twice with 1X PBS. The proteoliposomes were completely disrupted by adding 10% (w/v) SDS solution (final concentration, 2%). The transported peptide was measured using a microplate reader (Gemini XPS) with excitation at 485 nm and emission at 520 nm.
Molecule,"NBD*-PS fluorescence intensity (net percentage transported) (TAPL E664Q mutant; Mg2+/ATP minus Na+/ATP, no peptide, no POPS, mean n=3) [%]",NBD*-PS fluorescence intensity (net percentage transported) (TAPL E664Q mutant; replicate I) [%],NBD*-PS fluorescence intensity (net percentage transported) (TAPL E664Q mutant; replicate II) [%],NBD*-PS fluorescence intensity (net percentage transported) (TAPL E664Q mutant; replicate III) [%],movement of NBD*-PS to the inner leaflet (TAPL E664Q mutant; catalytically inactive E664Q mutant),Transport activity (TAPL Q298A mutant; replicate I) [%],Transport activity (TAPL Q298A mutant; replicate II) [%],Transport activity (TAPL Q298A mutant; replicate III) [%],"Transport activity (TAPL Q298A mutant; wild-type = 100%, mean n=3) [%]"
"CCCCCCCC/C=C\CCCCCCCC(=O)OC[C@H](COP(=O)(O)OC[C@H](N)C(=O)O)OC(=O)CCCCCNc1ccc([N+](=O)[O-])c2nonc12 [NBD*-PS, 1-oleoyl-2-{6-[(7-nitro-2-1,3-benzoxadiazol-4-yl)amino]hexanoyl}-sn-glycero-3-phosphoserine]",1.892,1.638,1.974,2.062,~ 1.9%,,,,
"RRYQNSTC^5-IAFL [9-mer, 5-IAF-labeled peptide of 9 residues (RRYQNSTC^5-IAFL)]",,,,,,88.0035,84.2917,85.5798,85.9583
